Assay results as given in patent US12440495B2, “Combination therapy for treatment of myeloproliferative neoplasms” (Incyte Corporation, priority 2020, dated 2025).

Tests used:
[1] = tested on: MPLW515L expressing bone marrow; assay: MPLW515L mouse model of MPN; conditions: Compound 1 10 mg/kg QD, ruxolitinib 60 mg/kg BID, or both; oral, 14 days
SET-2 cells = assay: SET-2 xenograft model; conditions: for tumor growth inhibition: Compound 1 10 mg/kg QD, or both, oral
myelofibrosis = conditions: ruxolitinib monotherapy in clinical trials; cited from earlier work

N#CC[C@H](C1CCCC1)n1cc(-c2ncnc3[nH]ccc23)cn1 [ruxolitinib, (3R)-3-cyclopentyl-3-[4-(7H-pyrrolo[2,3-d]pyrimidin-4-yl)-1H-pyrazol-1-yl]propanenitrile]
spleen size [1]: able to reduce spleen size
white blood cell count [1]: more profound effect on white blood cell count reduction than Compound 1
tumor growth inhibition (SET-2 cells; ruxolitinib 30 mg/kg BID, 14 days): significantly inhibited tumor growth
tumor growth inhibition (SET-2 cells; ruxolitinib 60 mg/kg BID, 11 days): significant tumor growth inhibition
Fa (tumor growth inhibition level), SET-2 (SET-2 cells; table head: ruxolitinib 60 mg/kg BID, Compound 1 10 mg/kg QD, combination): 0.44
reduction in spleen size (myelofibrosis): about 35%
